Measured values taken from patent US4464385A, “Treatment of diabetic complications with hydantoins” (Alcon Laboratories, Inc., priority 1982, dated 1984).

Test system: cataracts in rats
Test: Prevention or retardation of cataracts in galactose-fed rats
Type: in vivo, rat
Details: 0.0025% in diet
Method: The compounds to be tested were:
Test compound/diet mixtures were formulated as follows: […]
Similarly, the 0.01% level was designed to provide a drug concentration of 20 mg per kilogram per day.
All animals were fed the Purina Laboratory Chow and water, ad libitum for a two day acclimatization period. The indicated test compound/diet mixture then was introduced to all animals on Study Day 1 and the animals were maintained on this diet throughout thirty days of the study.
Sufficient amounts of test compound/diet mixture were maintained in the food hoppers to allow the animals to eat ad libitum. All aliquots of test compound/diet mixture added to the food hoopers were weighed and the weights, as well as day of addition, recorded.
Twelve animals were assigned to each treatment with each compound at the indicated percentage by total weight of feed. All eyes were examined with a handheld ophthalmoscope and/or penlight.

With `O=C1NC(=O)C2(CCOc3ccc(F)cc32)N1` (single isomer, unassigned) [SARGES**, dspiro (6fluoro-chroman-4,4imidazolidine)-2',5dione, reference compound] the “time of suppression, time to vacuole formation” value was 20.8 days and the “suppression of the formation of nuclear cataracts” value (30 days) was 100%.
